From patent US20200383985A1, “Inhibitors of Protease Activated Receptor-2” (Endosome Therapeutics, Inc., priority 2017, published 2020)
Like-named read-outs stand apart in the source and are kept apart here.

Columns and labels:
Assay type in all cases: cell-based
[1] = molecular target: T1, PAR2 (Homo sapiens, UniProt P55085); assay: IP1 accumulation assay in HT-29 cells (endogenous PAR2); conditions: 2F (300 nM)-induced IP1, HT-29 cells
T1 construct: HT-29 cells and HEK293 cells, which express endogenous PAR2; endogenous in cells; host or cells: HT-29
T1 sequence (P55085 26-397): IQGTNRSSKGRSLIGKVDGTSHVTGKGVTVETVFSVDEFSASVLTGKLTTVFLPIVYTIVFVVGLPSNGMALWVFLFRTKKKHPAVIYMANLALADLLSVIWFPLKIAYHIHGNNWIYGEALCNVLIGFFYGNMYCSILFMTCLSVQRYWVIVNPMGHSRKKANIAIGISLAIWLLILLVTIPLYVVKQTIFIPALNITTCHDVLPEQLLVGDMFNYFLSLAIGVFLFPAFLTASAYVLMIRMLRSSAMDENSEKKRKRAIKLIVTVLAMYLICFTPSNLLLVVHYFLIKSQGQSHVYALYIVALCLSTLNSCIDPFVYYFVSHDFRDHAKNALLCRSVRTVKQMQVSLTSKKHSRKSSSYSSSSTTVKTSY
Protocol: (§1) KNRK-hPAR2, KNRK or HT-29 cells were seeded at a density of 50×10^3 cells/well in a clear poly-d-lysine coated 96 well tissue culture plate. Following 24 h incubation at 37° C. and 5% CO2, media was removed and replaced with 80 μl IP1 stimulation buffer (10 mM HEPES, 1 mM CaCl2, 0.5 mM MgCl2, 4.2 mM KCl, 146 mM NaCl, 5.5 mM glucose, 50 mM LiCl). Following stimulation buffer addition, the wells received 10 μl of 10× antagonists or DMSO vehicle. All plates were further incubated at 37° C., 5% CO2 for 30 min. 10 μl of 2F or ATP was added to the plates and further incubated for 40 min. Following incubation, stimulation buffer was quickly removed by aspiration and replaced with 25 μl lysis buffer (IP-One HTRF® assay kit, Cisbio). Following incubation of the lysates at 37° C., 5% CO2 for 10′, 10 μl lysate was transferred to a 384-well OptiPlate (PerkinElmer) and detected using the IP-One HTRF® assay kit (Cisbio).
(§2) Compounds of the invention (added at 10×concentrations in a 10 μL volume) were incubated for 30 min prior to the addition of 10 μM ATP or 100 nM or 300 nM PAR2 agonist (2F; EC80, added at 10×concentrations in a 10 μL volume) and then further incubated for 40 min. After lysis, the inositol phosphate 1 was quantified with IP-One HTRF® assay kit, Cisbio. The data was analysed with Prism, GraphPad to calculate the IC50 values, shown below in Table 1.
(§3) Inhibition of PAR2 signaling with known PAR2 inhibitor I-343 (FIG. 14A) was investigated in HT-29 cells and HEK293 cells, which express endogenous PAR2, and in KNRK cells expressing human (h) PAR2. Accumulation of inositol phosphate-1 (IP1) was measured in response to the PAR2-selective agonist 2-Furoyl-LIGRLO-NH2 (2F), an analogue of the trypsin-exposed tethered ligand, or trypsin.
(§4) KNRK-hPAR2, KNRK, HEK293, or HT-29 cells were seeded at a density of 50×10^3 cells/well onto clear 96-well plates (PerkinElmer). After 24 h of culture, medium was replaced with IP1 stimulation buffer (10 mM HEPES, 1 mM CaCl2, 0.5 mM MgCl2, 4.2 mM KCl, 146 mM NaCl, 5.5 mM glucose, 50 mM LiCl; 37° C., 5% CO2.). Cells were pre-incubated with the antagonist or vehicle for 30 min prior to the addition of agonist. Cells were then further incubated for 40 min. Stimulation buffer was […]

[2] = molecular target: T2, human (h) PAR2 (Homo sapiens, UniProt P55085); assay: IP1 accumulation assay in KNRK-hPAR2 cells; conditions: for inhibition at 30 µM: 100 nM 2F, 30 μM of antagonist, read-out: KNRK-PAR2 100 nM 2F: ND (inhibition of 2F at 30 μM of antagonist); for IC50: 2F (100 nM)-induced IP1, KNRK-hPAR2 cells, read-out: KNRK-PAR2 100 nM 2F pIC50 ± SEM (converted)
T2 construct: expressed in transfected cells; host or cells: KNRK cells (KNRK-hPAR2)
T2 sequence (P55085 26-397): T1 sequence (P55085 26-397)
Protocol: as §1, §2, §3, §4

[3] = system: mouse DRG neurons; assay: Patch clamp rheobase of DRG neurons: protease-induced hyperexcitability of nociceptors
[4] = read-out: HT-29 300 nM 2F (IC50)
[5] = read-out: HT-29 300 nM 2F pIC50 ± SEM (converted)

Compound	IC50 [1, 4] [nM]	inhibition at 30 µM [2] [%]	IC50 [1, 5] [nM]	other results
CC(C)(C)c1cc(-c2ccc(F)cc2)nn2cc(C(=O)N3CCN(C(=O)c4cn(CC(=O)O)nn4)CC3(C)C)nc12 [Compound 2, 2-(4-(4-(8-(tert-butyl)-6-(4-fluorophenyl)imidazo[1,2-b]pyridazine-2-carbonyl)-3,3-dimethylpiperazine-1-carbonyl)-1H-1,2,3-triazol-1-yl)acetic acid]	140	< 50	138	
CC(C)(C)c1cc(-c2ccc(F)cc2)cc2nc(C(=O)N3CCN(C(=O)CCC(=O)NC[C@H](O)[C@@H](O)[C@H](O)[C@H](O)CO)CC3(C)C)oc12 [Compound 4, 4-(4-(7-(tert-butyl)-5-(4-fluorophenyl)benzo[d]oxazole-2-carbonyl)-3,3-dimethylpiperazin-1-yl)-4-oxo-N-((2S,3R,4R,5R)-2,3,4,5,6-pentahydroxyhexyl)butanamide]		< 50	> 10000	
CC(C)(C)c1cc(-c2ccc(F)cc2)nn2cc(C(=O)N3CCN(C(=O)c4cn(CC(=O)NCCOCCOCCO)nn4)CC3(C)C)nc12 [Compound 5, 2-(4-(4-(8-(tert-butyl)-6-(4-fluorophenyl)imidazo[1,2-b]pyridazine-2-carbonyl)-3,3-dimethylpiperazine-1-carbonyl)-1H-1,2,3-triazol-1-yl)-N-(2-(2-(2-hydroxyethoxy)ethoxy)ethyl)acetamide]		< 50	180	
CC(C)(C)c1cc(-c2ccc(F)cc2)nn2cc(C(=O)N3CCN(C(=O)c4cn(CC(=O)NCCOCCOCCOCCOCCOCCO)nn4)CC3(C)C)nc12 [Compound 6, 2-(4-(4-(8-(tert-butyl)-6-(4-fluorophenyl)imidazo[1,2-b]pyridazine-2-carbonyl)-3,3-dimethylpiperazine-1-carbonyl)-1H-1,2,3-triazol-1-yl)-N-(17-hydroxy-3,6,9,12,15-pentaoxaheptadecyl)acetamide]	971	< 50		
CC(C)CCC[C@@H](C)[C@H]1CCC2C3CCC4C[C@@H](OC(=O)C[C@H](NC(=O)CCOCCOCCNC(=O)Cn5cc(C(=O)N6CCN(C(=O)c7cn8nc(-c9ccc(F)cc9)cc(C(C)(C)C)c8n7)C(C)(C)C6)nn5)C(N)=O)CC[C@]4(C)C3CC[C@@]21C (stereo partly drawn) [Compound 9, (3S,10S,13R,17R)-10,13-dimethyl-17-((R)-6-methylheptan-2-yl)hexadecahydro-1H-cyclopenta[a]phenanthren-3-yl (14S)-1-(4-(4-(8-(tert-butyl)-6-(4-fluorophenyl)imidazo[1,2-b]pyridazine-2-carbonyl)-3,3-dimethylpiperazine-1-carbonyl)-1H-1,2,3-triazol-1-yl)-14-carbamoyl-2,12-dioxo-6,9-dioxa-3,13-diazahexadecan-16-oate]	700	< 50		
CC(C)CCC[C@@H](C)[C@H]1CCC2C3CCC4C[C@@H](OC(=O)C[C@H](NC(=O)CCOCCOCCOCCOCCNC(=O)Cn5cc(C(=O)N6CCN(C(=O)c7cn8nc(-c9ccc(F)cc9)cc(C(C)(C)C)c8n7)C(C)(C)C6)nn5)C(N)=O)CC[C@]4(C)C3CC[C@@]21C (stereo partly drawn) [Compound 11, (3S,10S,13R,17R)-10,13-dimethyl-17-((R)-6-methylheptan-2-yl)hexadecahydro-1H-cyclopenta[a]phenanthren-3-yl (20S)-1-(4-(4-(8-(tert-butyl)-6-(4-fluorophenyl)imidazo[1,2-b]pyridazine-2-carbonyl)-3,3-dimethylpiperazine-1-carbonyl)-1H-1,2,3-triazol-1-yl)-20-carbamoyl-2,18-dioxo-6,9,12,15-tetraoxa-3,19-diazadocosan-22-oate]	970	< 50		
CC(C)CCC[C@@H](C)[C@H]1CCC2C3CCC4C[C@@H](OC(=O)C[C@H](NC(=O)CCOCCOCCOCCOCCOCCOCCOCCOCCNC(=O)Cn5cc(C(=O)N6CCN(C(=O)c7cn8nc(-c9ccc(F)cc9)cc(C(C)(C)C)c8n7)C(C)(C)C6)nn5)C(N)=O)CC[C@]4(C)C3CC[C@@]21C (stereo partly drawn) [Compound 12, (3S,10S,13R,17R)-10,13-dimethyl-17-((R)-6-methylheptan-2-yl)hexadecahydro-1H-cyclopenta[a]phenanthren-3-yl (32S)-1-(4-(4-(8-(tert-butyl)-6-(4-fluorophenyl)imidazo[1,2-b]pyridazine-2-carbonyl)-3,3-dimethylpiperazine-1-carbonyl)-1H-1,2,3-triazol-1-yl)-32-carbamoyl-2,30-dioxo-6,9,12,15,18,21,24,27-octaoxa-3,31-diazatetratriacontan-34-oate]	827	< 50		
CN(C)CCCn1cc(C2=C(c3c[nH]c4ccccc34)C(=O)NC2=O)c2ccccc21 [GF109203X]				initial trypsin-induced hyperexcitability [3]: prevented; persistent trypsin-induced hyperexcitability [3]: not
CC(C)c1ccc(Cn2ccc3c4c(N)nc(NC5CC5)nc4ccc32)cc1 [SCH79797]				rheobase response to trypsin (PAR1 antagonist) ([3]; 1 μM): did not affect; rheobase, antagonist alone ([3]; 1 μM): no effect; thrombin-induced immediate decrease in rheobase ([3]; thrombin 50 nM, 20 min, antagonist 1 μM, 10 min preincubation): prevented
thrombin				rheobase after protease ([3]; trypsin 50 nM 10 min, NE 390 nM 30 min, CS 500 nM 60 min, thrombin 50 nM 20 min, washed): immediate decrease in rheobase

Further lines, with some results ahead:

IC50 [1, 4] [nM]	inhibition at 30 µM [2] [%]	IC50 [1, 5] [nM]	Compound	other results
5900	< 50		CC(C)(C)c1cc(-c2ccc(F)cc2)nn2cc(C(=O)N3CCN(C(=O)CCS(=O)(=O)O)CC3(C)C)nc12 [Compound 1, 3-(4-(8-(tert-butyl)-6-(4-fluorophenyl)imidazo[1,2-b]pyridazine-2-carbonyl)-3,3-dimethylpiperazin-1-yl)-3-oxopropane-1-sulfonic acid]	
40		40.7	CC(C)(C)c1cc(-c2ccc(F)cc2)nn2cc(C(=O)N3CCN(C(=O)[C@H]4CC[C@@H](C(=O)NC[C@H](O)[C@@H](O)[C@H](O)[C@H](O)CO)CC4)CC3(C)C)nc12 [Compound 3, (1S,4R)-4-(4-(8-(tert-butyl)-6-(4-fluorophenyl)imidazo[1,2-b]pyridazine-2-carbonyl)-3,3-dimethylpiperazine-1-carbonyl)-N-((2S,3R,4R,5R)-2,3,4,5,6-pentahydroxyhexyl)cyclohexane-1-carboxamide]	IC50 [2]: > 10000 nM
405	< 50	406	CC(C)(C)c1cc(-c2ccc(F)cc2)nn2cc(C(=O)N3CCN(C(=O)[C@H]4CC[C@@H](NC(=O)[C@H](O)[C@@H](O)[C@@H](O)[C@H](O)C(N)=O)CC4)CC3(C)C)nc12 [Compound 7, (2R,3S,4R,5S)—N1-((1s,4S)-4-(4-(8-(tert-butyl)-6-(4-fluorophenyl)imidazo[1,2-b]pyridazine-2-carbonyl)-3,3-dimethylpiperazine-1-carbonyl)cyclohexyl)-2,3,4,5-tetrahydroxyhexanediamide]	
		42.7	COC(=O)C12CCC(C(=O)N3CCN(C(=O)c4cn5nc(-c6ccc(F)cc6)cc(C(C)(C)C)c5n4)C(C)(C)C3)(CC1)CC2 [Compound 8, methyl 4-(4-(8-(tert-butyl)-6-(4-fluorophenyl)imidazo[1,2-b]pyridazine-2-carbonyl)-3,3-dimethylpiperazine-1-carbonyl)bicyclo[2.2.2]octane-1-carboxylate]	IC50 [2]: > 10000 nM
